Source: patent US20260356856A1, “KRAS G12S AND G12C INHIBITORS” (MIRATI THERAPEUTICS, INC., priority 2023, published 2026)

How the values were obtained:
[1] = biological target: T1, KRas-mediated phosphorylation of ERK in MKN1 cells (Homo sapiens, UniProt P01116); experiment: Inhibition of KRas-mediated phosphorylation of ERK (HTRF), MKN1 cells; assay type: cell-based; conditions: MKN1 cells (KRas WT); HTRF pERK; 3 h incubation
T1 construct: pERK HTRF read-out
Method: Inhibition of KRas Phosphorylation of ERK (HTRF) by Exemplary Compounds of Formula (Ia) or (Ib)
Cisbio HTRF Advanced pERK Assay Catalog #64AERPEH • Cells: MKN1, PSN1 • Procedure: • 1. Day 1: Seed 6,000 cells/well −25 μl/well in 384-well white solid bottom plate; RPM1_10% FBS. Incubate overnight at 37 °C/5% CO2. • 2.

[2] = biological target: T2, KRas-mediated phosphorylation of ERK in A549 cells (Homo sapiens, UniProt P01116, G12S); experiment: Inhibition of KRas-mediated phosphorylation of ERK (HTRF), A549 cells; assay type: cell-based; conditions: HTRF pERK, 3 h incubation
T2 construct: pERK HTRF read-out
T2 sequence (P01116 1-188 isoform P01116-2 G12S): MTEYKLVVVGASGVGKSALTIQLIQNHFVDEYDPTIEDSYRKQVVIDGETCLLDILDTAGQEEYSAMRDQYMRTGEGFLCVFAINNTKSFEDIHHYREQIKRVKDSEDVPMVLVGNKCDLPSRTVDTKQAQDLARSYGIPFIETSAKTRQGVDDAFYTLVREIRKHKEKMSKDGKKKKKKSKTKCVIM

KRas G12S = biological target: T3, KRas G12S (Homo sapiens, UniProt P01116, G12S); experiment: KRas binding assay, TR-FRET displacement of Cy5 labelled tracer; conditions: 60-minute incubation at room temperature, 1% DMSO, pH 7.5
T3 construct: Biotinylated KRas (corresponding to amino acids 1-169, produced at Accelegan Inc.); biotin (biotinylated); purchased Accelegan Inc
T3 sequence (P01116 1-169 isoform P01116-2 G12S): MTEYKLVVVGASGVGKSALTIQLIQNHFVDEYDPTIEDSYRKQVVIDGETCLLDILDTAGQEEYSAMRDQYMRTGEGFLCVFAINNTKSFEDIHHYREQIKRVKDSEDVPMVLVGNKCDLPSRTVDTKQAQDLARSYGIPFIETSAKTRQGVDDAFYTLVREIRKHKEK
Method: (§1) This Example illustrates that exemplary compounds of the present invention bind to KRas and are capable of displacing a labeled tracer ligand occupying the KRas binding site. KRas^WT, KRas^G12A, KRas^G12C, KRas^G12D, KRas^G12R, KRas^G12S, KRas^G12V, KRas^G13D, or KRas^Q61H was used in the assay.
(§2) The ability of a compound to bind to KRas was measured using a TR-FRET displacement assay. Biotinylated KRas (corresponding to amino acids 1-169, produced at Accelegan Inc.) was incubated with custom made Cy5 labelled tracer, terbium streptavidin (Cisbio Inc.) and compound (1% DMSO final) in buffer (50 mM HEPES, pH 7.5, 5 mM MgCl2, 0.005% Tween-20 and 1 mM DTT). After a 60-minute incubation at room temperature, the reaction was measured using a BMG LABTECH CLARIO star Plus via TR-FRET. […] The POC values were fit to a 4-parameter IC50 equation and the IC50 value reported.

KRas WT = biological target: T4, KRas WT (Homo sapiens, UniProt P01116); experiment: as above; conditions: 60-minute incubation at room temperature, 1% DMSO, pH 7.5
T4 construct: Biotinylated KRas (corresponding to amino acids 1-169, produced at Accelegan Inc.); biotin (biotinylated); purchased Accelegan Inc
T4 sequence (P01116 1-169 isoform P01116-2): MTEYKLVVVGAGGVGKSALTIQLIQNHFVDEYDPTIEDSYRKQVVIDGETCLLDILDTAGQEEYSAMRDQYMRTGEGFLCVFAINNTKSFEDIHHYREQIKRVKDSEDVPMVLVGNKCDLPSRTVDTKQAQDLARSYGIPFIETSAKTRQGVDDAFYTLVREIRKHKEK
Method: as §1, §2

KRas G12C = biological target: T5, KRas G12C (Homo sapiens, UniProt P01116, G12C); experiment: as above; conditions: 60-minute incubation at room temperature, 1% DMSO, pH 7.5
T5 construct: Biotinylated KRas (corresponding to amino acids 1-169, produced at Accelegan Inc.); biotin (biotinylated); purchased Accelegan Inc
T5 sequence (P01116 1-169 isoform P01116-2 G12C): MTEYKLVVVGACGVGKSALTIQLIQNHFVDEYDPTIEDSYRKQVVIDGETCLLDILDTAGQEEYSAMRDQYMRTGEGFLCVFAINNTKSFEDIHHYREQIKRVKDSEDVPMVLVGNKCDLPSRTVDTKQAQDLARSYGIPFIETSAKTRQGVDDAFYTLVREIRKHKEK
Method: as §1, §2

T1 sequence (P01116 1-188 isoform P01116-2): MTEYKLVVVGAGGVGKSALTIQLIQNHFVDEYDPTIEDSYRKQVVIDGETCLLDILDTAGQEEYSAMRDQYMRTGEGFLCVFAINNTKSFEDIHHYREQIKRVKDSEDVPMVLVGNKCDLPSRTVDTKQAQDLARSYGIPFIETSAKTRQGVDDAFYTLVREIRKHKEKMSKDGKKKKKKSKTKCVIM

| IC50 [1] | IC50 [2] | IC50 (KRas G12S) | IC50 (KRas WT) | IC50 (KRas G12C) | Compound |
| --- | --- | --- | --- | --- | --- |
| 9480 nM | 534 nM |  |  |  | Cc1ccn(C(=O)[C@H]2CCCN(c3nc(OC[C@@]45CCCN4C[C@H](F)C5)nc4c(F)c(-c5ccc(F)c6sc(N)c(C#N)c56)c(Cl)cc34)CC2)n1 (atropisomer, axis not shown; (aS)) [Example 169, 2-amino-4-((R)-6-chloro-8-fluoro-2-(((2R,7aS)-2-fluorotetrahydro-1H-pyrrolizin-7a(5H)-yl)methoxy)-4-((S)-4-(3-methyl-1H-pyrazole-1-carbonyl)azepan-1-yl)quinazolin-7-yl)-7-fluorobenzo [b]thiophene-3-carbonitrile] |
| 3040 nM | 6440 nM |  |  |  | Cc1ccn(C(=O)[C@@H]2CCCN(c3nc(OC[C@@]45CCCN4C[C@H](F)C5)nc4c(F)c(-c5ccc(F)c6sc(N)c(C#N)c56)c(Cl)cc34)CC2)n1 (atropisomer, axis not shown; (aS)) [Example 171, 2-amino-4-((R)-6-chloro-8-fluoro-2-(((2R,7aS)-2-fluorotetrahydro-1H-pyrrolizin-7a(5H)-yl)methoxy)-4-((R)-4-(3-methyl-1H-pyrazole-1-carbonyl)azepan-1-yl)quinazolin-7-yl)-7-fluorobenzo[b]thiophene-3-carbonitrile] |
|  |  | > 100000 nM | > 100000 nM | 18900 nM | O=C(Oc1ccc(F)c(F)c1)[C@H]1CCN(c2nc(OCC34CCCN3CCC4)nc3c(F)c(-c4cccc5cccc(F)c45)ncc23)C[C@H]1O [Example 36, 3,4-difluorophenyl (3S,4S)-1-(8-fluoro-7-(8-fluoronaphthalen-1-yl)-2-((tetrahydro-1H-pyrrolizin-7a(5H)-yl)methoxy)pyrido[4,3-d]pyrimidin-4-yl)-3-hydroxypiperidine-4-carboxylate] |
|  |  | 20400 nM | 20400 nM | 7290 nM | O=C(Oc1ccc(F)c(F)c1)[C@@H]1CCN(c2nc(OCC34CCCN3CCC4)nc3c(F)c(-c4cccc5cccc(F)c45)ncc23)C[C@@H]1O [Example 37, 3,4-difluorophenyl (3R,4R)-1-(8-fluoro-7-(8-fluoronaphthalen-1-yl)-2-((tetrahydro-1H-pyrrolizin-7a(5H)-yl)methoxy)pyrido[4,3-d]pyrimidin-4-yl)-3-hydroxypiperidine-4-carboxylate] |
|  |  | 27900 nM | 19300 nM | 761 nM | O=CC1CCN(c2nc(OCC34CCCN3CCC4)nc3c(F)c(-c4cccc5cccc(F)c45)ncc23)CC1 [Example 38, 1-(8-fluoro-7-(8-fluoronaphthalen-1-yl)-2-((tetrahydro-1H-pyrrolizin-7a(5H)-yl)methoxy)pyrido[4,3-d]pyrimidin-4-yl)piperidine-4-carbaldehyde] |
|  |  | 17600 nM | 12300 nM | 18200 nM | COC(=O)C1CCN(c2nc(OCC34CCCN3CCC4)nc3c(F)c(-c4cccc5cccc(F)c45)ncc23)CC1 [Example 41, methyl 1-(8-fluoro-7-(8-fluoronaphthalen-1-yl)-2-((tetrahydro-1H-pyrrolizin-7a(5H)-yl)methoxy)pyrido[4,3-d]pyrimidin-4-yl)piperidine-4-carboxylate] |
|  |  | 68100 nM | > 100000 nM | 768 nM | O=C(Oc1ccc(C(F)(F)F)cc1)C1CCN(c2nc(OCC34CCCN3CCC4)nc3c(F)c(-c4cccc5cccc(F)c45)ncc23)CC1 [Example 42, 4-(trifluoromethyl)phenyl 1-(8-fluoro-7-(8-fluoronaphthalen-1-yl)-2-((tetrahydro-1H-pyrrolizin-7a(5H)-yl)methoxy)pyrido[4,3-d]pyrimidin-4-yl)piperidine-4-carboxylate] |
|  |  | 42100 nM | > 100000 nM | 424 nM | O=C(Oc1ccc(F)c(F)c1)C1CCN(c2nc(OCC34CCCN3CCC4)nc3c(F)c(-c4cccc5cccc(F)c45)ncc23)CC1 [Example 43, 3,4-difluorophenyl 1-(8-fluoro-7-(8-fluoronaphthalen-1-yl)-2-((tetrahydro-1H-pyrrolizin-7a(5H)-yl)methoxy)pyrido[4,3-d]pyrimidin-4-yl)piperidine-4-carboxylate] |
|  |  | 81100 nM | > 100000 nM | 1770 nM | O=C(Oc1ccccc1)C1CCN(c2nc(OCC34CCCN3CCC4)nc3c(F)c(-c4cccc5cccc(F)c45)ncc23)CC1 [Example 44, phenyl 1-(8-fluoro-7-(8-fluoronaphthalen-1-yl)-2-((tetrahydro-1H-pyrrolizin-7a(5H)-yl)methoxy)pyrido[4,3-d]pyrimidin-4-yl)piperidine-4-carboxylate] |
|  |  | > 100000 nM | 65700 nM | > 100000 nM | COC(=O)[C@H]1CCN(c2nc(OCC34CCCN3CCC4)nc3c(F)c(-c4cccc5cccc(F)c45)ncc23)C[C@@H]1O [Example 45, methyl (3R,4S)-1-(8-fluoro-7-(8-fluoronaphthalen-1-yl)-2-((tetrahydro-1H-pyrrolizin-7a(5H)-yl)methoxy)pyrido[4,3-d]pyrimidin-4-yl)-3-hydroxypiperidine-4-carboxylate] |
|  |  | > 100000 nM | > 100000 nM | > 100000 nM | COC(=O)[C@H]1CCN(c2nc(OCC34CCCN3CCC4)nc3c(F)c(-c4cccc5cccc(F)c45)ncc23)C[C@H]1O [Example 46, methyl (3S,4S)-1-(8-fluoro-7-(8-fluoronaphthalen-1-yl)-2-((tetrahydro-1H-pyrrolizin-7a(5H)-yl)methoxy)pyrido[4,3-d]pyrimidin-4-yl)-3-hydroxypiperidine-4-carboxylate] |
|  |  | > 100000 nM | > 100000 nM | > 100000 nM | COC(=O)[C@@H]1CCN(c2nc(OCC34CCCN3CCC4)nc3c(F)c(-c4cccc5cccc(F)c45)ncc23)C[C@@H]1O [Example 47, methyl (3R,4R)-1-(8-fluoro-7-(8-fluoronaphthalen-1-yl)-2-((tetrahydro-1H-pyrrolizin-7a(5H)-yl)methoxy)pyrido[4,3-d]pyrimidin-4-yl)-3-hydroxypiperidine-4-carboxylate] |
|  |  | 56500 nM | 25400 nM | 30300 nM | O=C(Oc1ccccc1)C1CCCN(c2nc(OCC34CCCN3CCC4)nc3c(F)c(-c4cccc5cccc(F)c45)ncc23)C1 (stereo not drawn) [Example 51, phenyl 1-(8-fluoro-7-(8-fluoronaphthalen-1-yl)-2-((tetrahydro-1H-pyrrolizin-7a(5H)-yl)methoxy)pyrido[4,3-d]pyrimidin-4-yl)piperidine-3-carboxylate] |
|  |  | 27100 nM | 20200 nM | 6810 nM | O=C(Oc1ccccc1F)C1CCCN(c2nc(OCC34CCCN3CCC4)nc3c(F)c(-c4cccc5cccc(F)c45)ncc23)C1 (stereo not drawn) [Example 52, 2-fluorophenyl 1-(8-fluoro-7-(8-fluoronaphthalen-1-yl)-2-((tetrahydro-1H-pyrrolizin-7a(5H)-yl)methoxy)pyrido[4,3-d]pyrimidin-4-yl)piperidine-3-carboxylate] |
|  | 6810 nM | 168 nM | 84 nM | 96 nM | CCc1c(F)ccc2cc(O)cc(-c3ncc4c(N5CCN(C(=O)n6ccc(C)n6)C(C(F)F)C5)nc(OC[C@@]56CCCN5C[C@H](F)C6)nc4c3F)c12 (stereo partly drawn) [Example 125, (2-(difluoromethyl)-4-(7-(8-ethyl-7-fluoro-3-hydroxynaphthalen-1-yl)-8-fluoro-2-(((2R,7aS)-2-fluorotetrahydro-1H-pyrrolizin-7a(5H)-yl)methoxy)pyrido[4,3-d]pyrimidin-4-yl)piperazin-1-yl)(3-methyl-1H-pyrazol-1-yl)methanone] |
|  | 9800 nM | 88 nM | 8 nM | 84 nM | CCc1c(F)ccc2cc(O)cc(-c3ncc4c(N5CCN(C(=O)n6ccc(C)n6)C(CC#N)C5)nc(OC[C@@]56CCCN5C[C@H](F)C6)nc4c3F)c12 (stereo partly drawn) [Example 126, 2-(4-(7-(8-ethyl-7-fluoro-3-hydroxynaphthalen-1-yl)-8-fluoro-2-(((2R,7aS)-2-fluorotetrahydro-1H-pyrrolizin-7a(5H)-yl)methoxy)pyrido[4,3-d]pyrimidin-4-yl)-1-(3-methyl-1H-pyrazole-1-carbonyl)piperazin-2-yl) acetonitrile] |
|  |  | 14 nM | 23 nM | 12 nM | CCc1c(F)ccc2cc(O)cc(-c3ncc4c(N(C)CCCC(=O)NC(C)=O)nc(OC[C@@]56CCCN5C[C@H](F)C6)nc4c3F)c12 [Example 325, N-acetyl-4-((7-(8-ethyl-7-fluoro-3-hydroxynaphthalen-1-yl)-8-fluoro-2-(((2R,7aS)-2-fluorotetrahydro-1H-pyrrolizin-7a(5H)-yl)methoxy)pyrido[4,3-d]pyrimidin-4-yl)(methyl)amino)butanamide] |
